Source: patent publication US10307389B2, “Succinate prodrugs for use in the treatment of lactic acidosis or drug-induced side-effects due to Complex I-related impairment of mitochondrial oxidative phosphorylation” (NEUROVIVE PHARMACEUTICAL AB, priority 2014, dated 2019)

Columns and labels:
[1] = case report; cited from earlier work
[2] = test system: permeabilized human peripheral blood mononuclear cells (PBMCs); experiment: High-resolution respirometry of permeabilized human PBMCs; settings: PBMC, read-out: IC50 for inhibition of OXPHOSCI capacity
Protocol: Real-time respirometric measurements were performed using high-resolution oxygraphs (Oxygraph-2k, Oroboros Instruments, Innsbruck, Austria). The experimental conditions during the measurements were the following: 37° C., 2 mL active chamber volume and 750 rpm stirrer speed. […] For data recording, DatLab software version 4 and 5 were used (Oroboros Instruments, Innsbruck, Austria). Settings, daily calibration and instrumental background corrections were conducted according to the manufacturer's instructions. […] All measurements were performed at a platelet concentration of 200×10^6 cells per mL or a PBMC concentration of 5×10^6 cells per mL. […] Maximal uncoupled respiratory electron transport system capacity supported by convergent input through complex I and […] ) was evaluated by subsequent titration with the protonophore carbonylcyanide p-(trifluoromethoxy) phenylhydrazone (FCCP). […] Complex IV activity was calculated by subtracting the sodium azide value from the TMPD value. With exception of complex IV activity, all respiratory states were measured at steady-state and corrected for ROX. Complex IV activity was measured after ROX determination and not at steady-state.

[3] = patients; cited from earlier work
intact human platelets = experiment: Lactate production and pH of intact human platelets; assay type: cell-based; settings: 8 h; metformin 1 and 10 mM, phenformin 0.5 mM, rotenone 2 μM
Protocol: Lactate levels are determined every 30 min using the Lactate Pro™ 2 blood lactate test meter (Arkray, Alere A B, Lidingö, Sweden) or similar types of measurements. Incubation is performed at 37° C. pH is measured at start, after 4 and after 8 h (or more frequently) of incubation using a Standard pH Meter, e.g. PHM210 (Radiometer, Copenhagen, Denmark). Drug candidates are added to the assay from start or following 30-60 min at concentrations within the range 10 μM-5 mM. […] In order to evaluate the specificity of the drug candidate, it is also tested in combination with a down-stream inhibitor of respiration such as the complex III inhibitor Antimycin at 1 μg/mL, which should abolish the effect of the drug candidate and restore the production of lactate.
Incubation was performed at 37° C. at a stirrer speed of 750 rpm, and pH was measured at start, after 4 and after 8 h of incubation (n=4) using a PHM210 Standard pH Meter (Radiometer, Copenhagen, Denmark).

[4] = test system: permeabilized human platelets; experiment: cells
Protocol: Lactate production of intact human platelets was determined in PBS containing 10 mM glucose.
Subsequently the FADH2-linked substrate succinate (10 mM) was given to determine convergent complex I- and II-dependent OXPHOS capacity (OXPHOSCI+II). […] Finally, the artificial complex IV substrate N,N,N′,N′-tetramethyl-p-phenylenediamine dihydrochloride (TMPD, 0.5 mM) was added and the complex IV inhibitor sodium azide (10 mM) was given to measure complex IV activity and chemical background, respectively.

Structure (SMILES) | serum level in involuntary intoxication, prior to hemodialysis [1] | IC50 [2] | incidence of lactic acidosis [3] | lactate production compared to control (intact human platelets) | IC50 ([4]; Homo sapiens, Platelet, 10 min, read-out: IC50 for inhibition of OXPHOSCI capacity) | ETSCII capacity and complex IV activity ([4]; permeabilized platelets, compared to controls) | potency of OXPHOSCI inhibition relative to metformin ([4]; permeabilized platelets, phenformin vs metformin)
CN(C)C(=N)N=C(N)N [Metformin] | over 2 mM | 450 µM |  |  |  |  | 
[H]/N=C(/N)N/C(=N/[H])NCCc1ccccc1 [Phenformin] |  |  | 4 cases per 10000 treatment-years | significantly more lactate | 58 µM | not ETSCII or respiration specific to complex IV | 20 fold
